Data as given in patent US9012169B2, “Metabolic method to identify compounds having flavor or fragrance” (Givaudan S.A., priority 2004, dated 2015).

Columns and labels:
[1] = target: CYP2E1 and Epoxide Hydrolase (EH) (Homo sapiens, UniProt P05181)
Description: Styrene is incubated in a first incubation step with microsomal membranes of baculovirus-infected Sf9 insect cell membranes that contain CYP2E1 and POR. In a second incubation step, this sample is incubated with EH.
In the first step, 3 μl styrene (77 mM in acetonitrile), 425 μl potassium phosphate buffer (50 mM, pH 7.4), 16.5 μl MgCl2, 50 pmole of CYP2E1 containing cytochrome P450 reductase (purchased from BD Bioscience, Gentest, US) and water are mixed to give a total volume of 470 μl. 30 μl NADPH (50 mM in water) are added to the sample, to the control 30 μl water are added. Sample and control are incubated at 37° C. for 1 hour.
In the second step, 50 μl of 1 M Tris-Cl, pH 9 followed by 0.4 mg/ml protein (human microsomal epoxide hydrolase microsomes, 25,000 pmole styrene oxide hydrolase activity/(min×mg protein) BD Bioscience, Gentest, US) is added and incubation is continued for 30 min.
After the second step, 100 μl acetonitrile is added to sample and control and they are placed on ice. This stops the enzymatic reaction. Compounds in the samples are extracted with MTBE.
Metabolites, i.e. additional compounds present in the sample but not in the control, are identified by GC-MS.

human CYP2A13 [2] = target: T1, human CYP2A13 (Homo sapiens, UniProt Q16696); conditions: 60 min, 0.3 mM, pH 7.4
T1 sequence (Q16696 1-494): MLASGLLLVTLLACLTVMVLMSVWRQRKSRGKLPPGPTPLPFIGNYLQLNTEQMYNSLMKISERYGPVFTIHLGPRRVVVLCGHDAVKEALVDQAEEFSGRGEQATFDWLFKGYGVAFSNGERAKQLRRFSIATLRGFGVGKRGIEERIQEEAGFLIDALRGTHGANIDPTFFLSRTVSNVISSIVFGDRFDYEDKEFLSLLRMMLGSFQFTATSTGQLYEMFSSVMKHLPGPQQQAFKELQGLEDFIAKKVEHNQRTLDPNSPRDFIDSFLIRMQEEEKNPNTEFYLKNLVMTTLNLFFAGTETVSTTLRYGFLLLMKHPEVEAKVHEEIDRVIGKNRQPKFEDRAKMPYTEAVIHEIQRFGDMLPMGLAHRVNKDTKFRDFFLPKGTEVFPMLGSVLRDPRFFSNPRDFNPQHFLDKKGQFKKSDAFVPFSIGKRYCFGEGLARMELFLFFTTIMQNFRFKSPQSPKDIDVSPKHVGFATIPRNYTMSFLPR
Description: (§1) 100 pmoles human recombinant NADPH-P450 reductase contained in microsomes (BD Biosciences Gentest, USA) are incubated with 50 pmoles CYP2A13 microsomes for 15 minutes on ice. Freshly sonicated dilaurylphosphatidylcholine (DLPC, Fluka, Switzerland) is added from a stock solution (1 mg/ml in water) to give a final concentration of 0.025 mg/ml (0.5 ml final reaction volume) and the mixture is incubated on ice for 15 minutes. Potassium phosphate buffer (1 M, pH 7.4) and water are added to give a buffer concentration of 0.1M in a final volume of 0.5 ml. The test compound is prepared as a 50 mM stock solution in acetonitrile. […]
(§2) Following the 60 min incubation, the sample is chilled on ice for 10 minutes and the enzymatic reaction is stopped by extraction with 0.3 ml of the organic solvent methyl-t-butyl-ether (MTBE) that allows separating the test compound and its metabolites from the aqueous phase which contains the enzymes. 1 microliter of the MTBE fraction is analysed by GC and GC-MS to identify metabolites which are present in the enzymatic reaction, but not in the control.
(§3) For test compounds which show a decrease in umbelliferone-derived fluorescence, the incubation with the enzyme but without coumarin and analysis of metabolites is performed by GC and GC-MS as described in Example 2A. […]

[3] = target: T2, equine liver ADH (EC 1.1.1.1) (Equus caballus, UniProt P00327); test: Incubation of octanol with alcohol dehydrogenase (ADH), metabolite by GC and GC-MS; format: in vitro ADME; conditions: octanol 0.1 M, 50 mU ADH, 10 mM NAD+, pH 8.5, 30 min at 25° C.
T2 construct: purchased Sigma-Aldrich, Switzerland
Description: Human alcohol dehydrogenase exists as a heterogeneous group of isozymes capable of oxidizing a wide variety of aliphatic and aromatic alcohols. Any isozyme of the human enzyme can be used. In this example, equine liver ADH (EC 1.1.1.1; Sigma-Aldrich, Switzerland) is used instead of the human enzyme. Octanol is incubated with ADH in a 1-ml reaction volume containing 50 mM potassium phosphate (pH 8.5) and 10 mM NAD+ (Fluka, Switzerland). Octanol is added at a concentration of 0.1 M and the metabolic reaction is initiated by addition of 50 mU of ADH and incubated for 30 min at 25° C. The tube is centrifuged to separate any debris and the supernatant extracted with MTBE for analysis by GC and GC-MS. […] The metabolite is identified by GC analysis and GC-MS as octanal.

[4] = target: T3, rat olfactory receptor 17 (Rattus norvegicus, UniProt P23270); test: Receptor screen using HEK293 cells expressing Galpha-15,16 and the rat olfactory receptor 17, intracellular calcium; format: cell-based; conditions: octanol incubated with ADH (octanal present) versus control without enzyme
T3 construct: expressed in transfected cells; host or cells: HEK293
T3 sequence (P23270 1-327): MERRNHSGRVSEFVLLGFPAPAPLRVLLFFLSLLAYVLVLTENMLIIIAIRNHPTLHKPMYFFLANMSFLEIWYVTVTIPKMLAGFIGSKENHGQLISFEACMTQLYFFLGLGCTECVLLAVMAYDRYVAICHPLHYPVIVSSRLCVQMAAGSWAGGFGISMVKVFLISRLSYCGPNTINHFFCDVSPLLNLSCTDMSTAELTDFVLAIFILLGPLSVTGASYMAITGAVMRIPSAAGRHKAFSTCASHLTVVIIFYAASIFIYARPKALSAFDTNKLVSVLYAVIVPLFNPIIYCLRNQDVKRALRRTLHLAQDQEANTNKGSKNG
Description: Octanol is incubated with alcohol dehydrogenase as described in example 10, controls without alcohol dehydrogenase are incubated accordingly. In the presence of the enzyme, the metabolite of octanol, which is octanal, is present as shown in example 10.
The rat olfactory receptor 17 together with the Galpha15,16 are expressed by co-transfection in HEK293 cells as described by Krautwurst et al. (1998), Cell 95:917-926. Transfected HEK293 cells are plated on coverslips, 24-well tissue culture plates, and microtiter plates. These coverslips and plates are incubated with Fura-2 as described in example 8. The microtiter plates are incubated as described by Krautwurst et al. (1998).
The supernatant is transferred to an empty container and diluted with 2×HEPES (4 mM Ca^2+). This dilution is used as a sample in the receptor screen as described in Example 8, using HEK293 cells that express Galpha-15,16 and the rat olfactory receptor 17.
Fluorescence recording is performed to monitor any increase in intracellular, cytoplasmic calcium levels.

human CYP2A13 [5] = target: T1, human CYP2A13; test: Incubation of a test compound with human CYP2A13 and identification of metabolites by GC and GC-MS; conditions: from decrease of umbelliferone and metabolite found by GC-MS
Description: as §1, §2, §3

hTRPM8 = hTRPM8 (Homo sapiens, UniProt Q7Z2W7); test: Receptor screen using hTRPM8-expressing CHO-K1/FRT cells, Fura-2 intracellular calcium; conditions: for Receptor ligand character at hTRPM8: conclusion from the receptor screen after the metabolic reaction with CE; for Intracellular calcium levels in hTRPM8-expressing CHO-K1 cells: menthyl-lactate incubated with CE (menthol formed) versus control with substrate but without CE
Description: The stable CHO-K1/FRT cell clones that express hTRPM8 are used in a receptor screen to identify ligands of said receptor. This is performed analogous to the method described by Peier et al. (Cell (2002) 108:705-715) for the mouse TRPM8 cDNA. Glass coverslips, 24-well and 96-well tissue culture plates are used for cell plating. Cells are loaded with the calcium-sensitive fluorescent dye Fura-2 acetoxymethyl ester (Fura-2AM). As a test compound, menthol or another known ligand is diluted in a suitable buffer compatible with the CHO-K1/FRT cells.
Menthyl-lactate, a substrate of CE, is incubated with CE. Controls contain menthyl-lactate but not CE. The incubation is performed as described in Examples 7B, subject to the following modifications: after 30 min incubation time at 25° C., the samples are chilled on ice for 10 min and centrifuged. Supernatants are transferred to empty wells and diluted with 1 volume 2×HEPES (4 mM Ca^2+). The dilution is used as a test sample in a receptor screen as described in Example 8.

[6] = target: T4, human recombinant carboxyl esterase (CE) (Homo sapiens, UniProt P23141); test: Incubation with human recombinant carboxyl esterase (CE) and standard substrate p-nitrophenylacetate, absorbance at 405 nm; format: biochemical; conditions: 0.1 mM p-nitrophenylacetate, test compound 0-1 mM, 25° C., pH 7.2
T4 construct: In order to clone the full-length gene encoding CE; made in house; host or cells: Sf9 insect cells, baculovirus (pBlueBac4.5), used as microsomes
T4 sequence (P23141 18-566 isoform P23141-3 limits assumed): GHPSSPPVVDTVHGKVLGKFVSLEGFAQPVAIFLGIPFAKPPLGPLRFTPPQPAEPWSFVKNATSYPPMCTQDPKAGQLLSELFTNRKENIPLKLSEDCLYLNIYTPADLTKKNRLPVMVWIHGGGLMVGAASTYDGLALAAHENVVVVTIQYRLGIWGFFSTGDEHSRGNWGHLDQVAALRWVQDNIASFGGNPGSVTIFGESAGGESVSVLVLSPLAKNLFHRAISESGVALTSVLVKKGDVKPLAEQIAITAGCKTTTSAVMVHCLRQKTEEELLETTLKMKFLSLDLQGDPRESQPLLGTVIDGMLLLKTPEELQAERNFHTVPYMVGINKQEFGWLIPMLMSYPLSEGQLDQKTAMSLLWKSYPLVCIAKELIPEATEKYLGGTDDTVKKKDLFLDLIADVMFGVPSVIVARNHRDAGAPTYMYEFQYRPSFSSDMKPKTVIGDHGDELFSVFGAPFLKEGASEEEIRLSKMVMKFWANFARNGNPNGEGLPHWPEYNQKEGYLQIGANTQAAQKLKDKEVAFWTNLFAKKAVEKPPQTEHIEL
Description: The incubation of a test compound (potential substrate or modulator of CE) and CE is performed in the presence of a standard substrate, for example p-nitrophenylacetate. The hydrolysis product of p-nitrophenylacetate is p-nitrophenol which can be detected by measuring the absorbance at 405 nm. […] The incubation mixture contains CE microsomes containing CE enzyme corresponding to 4 mU of CE in a total volume of 0.2 ml (1 U hydrolyzes 1.0 μmole of ethylbutyrate to butyrate and ethanol per min at pH 8.0, 25° C.), 0.1 mM p-nitrophenylacetate, and the test compound in 50 mM potassium phosphate buffer (pH 7.2). The test compound is employed at different concentrations, for example 0, 0.05, 0.1, 0.25, 0.5, 1 mM, to allow detection of a dose-dependent effect. Samples that contain no test compound serve as a negative control. The samples are incubated at 25° C. and the increase in absorbance at 405 nm is measured every 5 minutes for 30 minutes.

[7] = target: T4, human recombinant carboxyl esterase (CE); test: Incubation with CE in the absence of the standard substrate, metabolites by GC and GC-MS; format: in vitro ADME
Description: Incubation with CE is performed in the absence of the standard substrate using 10 mU of CE in a total volume of 0.5 ml with the substrate at 0.25 mM and 50 mM potassium phosphate as the assay buffer.
GC and GC-MS analysis show the formation of an additional peak which is identified as menthol, which is a metabolite of menthyl-lactate.

[8] = target: T5, human microsomal epoxide hydrolase (EH) (Homo sapiens, UniProt P07099); test: Incubation of styrene oxide with human microsomal epoxide hydrolase (EH), metabolite by GC-MS; format: in vitro ADME; conditions: 0.5 mM styrene oxide, 0.2 mg/ml EH, pH 9, 30 min at 37° C.
T5 construct: purchased BD Bioscience, Gentest, US
T5 sequence (P07099 1-455): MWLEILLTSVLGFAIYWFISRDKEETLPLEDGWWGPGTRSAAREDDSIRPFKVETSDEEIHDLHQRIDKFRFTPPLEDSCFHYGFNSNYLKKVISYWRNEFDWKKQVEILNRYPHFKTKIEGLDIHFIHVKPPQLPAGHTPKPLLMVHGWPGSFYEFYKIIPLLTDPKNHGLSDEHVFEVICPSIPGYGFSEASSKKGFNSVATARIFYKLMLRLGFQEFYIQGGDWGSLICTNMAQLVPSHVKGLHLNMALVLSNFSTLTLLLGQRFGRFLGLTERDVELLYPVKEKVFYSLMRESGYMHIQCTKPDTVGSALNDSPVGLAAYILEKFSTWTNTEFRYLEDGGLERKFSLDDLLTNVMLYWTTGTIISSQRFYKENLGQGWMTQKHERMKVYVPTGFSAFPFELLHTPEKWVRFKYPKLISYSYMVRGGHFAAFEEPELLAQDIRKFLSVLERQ

hTRPM8, sequence (Q7Z2W7 whole entry): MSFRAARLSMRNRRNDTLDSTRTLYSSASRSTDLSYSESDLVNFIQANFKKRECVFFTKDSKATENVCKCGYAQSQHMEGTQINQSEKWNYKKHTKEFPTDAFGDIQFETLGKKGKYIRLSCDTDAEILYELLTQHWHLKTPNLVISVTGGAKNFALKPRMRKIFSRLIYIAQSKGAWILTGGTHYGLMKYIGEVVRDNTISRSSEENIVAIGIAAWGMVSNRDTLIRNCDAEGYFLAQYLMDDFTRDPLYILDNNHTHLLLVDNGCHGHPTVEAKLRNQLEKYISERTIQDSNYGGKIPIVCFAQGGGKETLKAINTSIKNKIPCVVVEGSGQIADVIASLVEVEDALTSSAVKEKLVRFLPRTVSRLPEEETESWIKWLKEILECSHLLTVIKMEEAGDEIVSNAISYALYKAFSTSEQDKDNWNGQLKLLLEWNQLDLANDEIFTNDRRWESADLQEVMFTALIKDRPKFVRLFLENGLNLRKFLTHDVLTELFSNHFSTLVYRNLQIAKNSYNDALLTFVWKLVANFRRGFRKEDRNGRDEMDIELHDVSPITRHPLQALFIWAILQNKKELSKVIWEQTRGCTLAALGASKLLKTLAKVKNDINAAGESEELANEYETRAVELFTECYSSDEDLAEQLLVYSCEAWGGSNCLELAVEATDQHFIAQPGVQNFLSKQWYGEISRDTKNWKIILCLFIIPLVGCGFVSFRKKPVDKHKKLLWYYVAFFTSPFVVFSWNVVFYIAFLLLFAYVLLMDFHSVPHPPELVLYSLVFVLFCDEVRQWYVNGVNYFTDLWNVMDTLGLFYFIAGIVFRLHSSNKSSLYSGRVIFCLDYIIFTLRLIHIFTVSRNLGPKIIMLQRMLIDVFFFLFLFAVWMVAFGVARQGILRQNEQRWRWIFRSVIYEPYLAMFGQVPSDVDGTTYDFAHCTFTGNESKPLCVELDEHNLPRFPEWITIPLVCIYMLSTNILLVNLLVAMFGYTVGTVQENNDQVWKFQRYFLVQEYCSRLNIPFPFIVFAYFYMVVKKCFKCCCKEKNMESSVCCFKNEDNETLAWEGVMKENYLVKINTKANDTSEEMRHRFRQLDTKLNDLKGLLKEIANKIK
T2 sequence (P00327 2-375 limits assumed): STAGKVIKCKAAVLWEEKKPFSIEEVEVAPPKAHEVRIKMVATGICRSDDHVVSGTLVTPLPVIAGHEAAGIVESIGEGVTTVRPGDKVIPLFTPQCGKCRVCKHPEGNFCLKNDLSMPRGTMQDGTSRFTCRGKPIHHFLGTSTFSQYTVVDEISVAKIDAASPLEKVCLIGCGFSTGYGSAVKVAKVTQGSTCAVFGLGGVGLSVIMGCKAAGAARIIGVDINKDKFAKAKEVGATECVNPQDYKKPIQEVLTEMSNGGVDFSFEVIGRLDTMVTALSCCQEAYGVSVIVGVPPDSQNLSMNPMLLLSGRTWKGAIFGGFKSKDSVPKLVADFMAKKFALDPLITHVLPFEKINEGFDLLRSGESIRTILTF
CYP2E1 and Epoxide Hydrolase (EH), sequence (P05181 whole entry): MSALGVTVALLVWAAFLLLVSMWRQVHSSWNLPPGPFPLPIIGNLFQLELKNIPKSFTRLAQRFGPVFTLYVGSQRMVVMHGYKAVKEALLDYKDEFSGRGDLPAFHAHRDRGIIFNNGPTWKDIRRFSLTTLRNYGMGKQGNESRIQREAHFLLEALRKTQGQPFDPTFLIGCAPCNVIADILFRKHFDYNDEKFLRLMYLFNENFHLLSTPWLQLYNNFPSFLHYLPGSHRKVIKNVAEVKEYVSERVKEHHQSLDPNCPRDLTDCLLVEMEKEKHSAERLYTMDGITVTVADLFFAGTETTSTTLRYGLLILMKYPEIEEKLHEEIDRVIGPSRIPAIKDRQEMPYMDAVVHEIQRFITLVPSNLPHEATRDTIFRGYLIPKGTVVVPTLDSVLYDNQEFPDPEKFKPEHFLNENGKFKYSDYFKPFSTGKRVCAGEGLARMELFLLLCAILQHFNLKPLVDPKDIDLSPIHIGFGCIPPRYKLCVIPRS

## C=Cc1ccccc1 [styrene]
[1]
  Identified metabolites by GC-MS (present in the sample, not in the control): styrene epoxide and the corresponding diol

## COCC(=O)c1ccccc1 [2-methoxyacetophenone]
Human CYP2A13 [2]
  Metabolite identified by GC and GC-MS (additional peak present in the sample, not in the control): 2-hydroxyacetophenone

## CCCCCCCCO [octanol]
[3]
  Metabolite identified by GC analysis and GC-MS: octanal
[4]
  Activation of the rat olfactory receptor 17 (increase in intracellular calcium levels): not able to activate the receptor

## CN(C)c1ccccc1 [N,N-dimethylaniline]
Human CYP2A13 [5]
  Identification as substrate or modulator of CYP2A13: substrate of CYP2A13

## CCCCCCCC=O [octanal]
[4]
  Activation of the rat olfactory receptor 17 (increase in intracellular calcium levels): agonist

## CC1CCC(C(C)C)C(O)C1 (centres unmarked) [menthol]
hTRPM8
  Receptor ligand character at hTRPM8: preferred hTRPM8 agonist
  Intracellular calcium levels in hTRPM8-expressing CHO-K1 cells: increase of intracellular calcium levels

## CC1CCC(C(C)C)C(OC(=O)C(C)O)C1 (centres unmarked) [menthyl-lactate]
[6]
  Formation of the enzymatic reaction product of p-nitrophenylacetate compared to negative control: concentration-dependent decrease
[7]; 10 mU CE, substrate 0.25 mM, 30 min at 25° C., no standard substrate
  Metabolite identified by GC and GC-MS (additional peak): menthol
[7]; from decrease of standard product and metabolite found
  Identification as substrate or modulator of human CE: substrate of human CE
hTRPM8
  Receptor ligand character at hTRPM8: not the main receptor ligand
  Intracellular calcium levels in hTRPM8-expressing CHO-K1 cells: no comparable increase

## c1ccc(C2CO2)cc1 (centres unmarked) [styrene oxide]
[8]
  Metabolite found by GC-MS in the sample but not in the control: diol
